Results taken from ChEMBL document CHEMBL3817798, “Cholecystokinin-1 receptor antagonists: 5-hydroxy-5-aryl-pyrrol-2-ones as anticancer agents” (Medchemcomm, 2016).
The source made the active and inactive calls. The calls are words filed in the database; no cut-off is given here.

Assays:
[1] = Displacement of [125]I-CCK-8 from CCK-B receptor in guinea pig cerebral cortex after 2 hrs by gamma counting; assay type: tissue-based, Cavia porcellus
[2] = biological target: T1, Cholecystokinin receptor type A (Rattus norvegicus, UniProt P30551); assay: Displacement of [125]I-CCK-8 from CCK-A receptor in rat pancreatic membrane after 2 hrs by gamma counting; assay type: cell membranes
T1 sequence (P30551 whole entry): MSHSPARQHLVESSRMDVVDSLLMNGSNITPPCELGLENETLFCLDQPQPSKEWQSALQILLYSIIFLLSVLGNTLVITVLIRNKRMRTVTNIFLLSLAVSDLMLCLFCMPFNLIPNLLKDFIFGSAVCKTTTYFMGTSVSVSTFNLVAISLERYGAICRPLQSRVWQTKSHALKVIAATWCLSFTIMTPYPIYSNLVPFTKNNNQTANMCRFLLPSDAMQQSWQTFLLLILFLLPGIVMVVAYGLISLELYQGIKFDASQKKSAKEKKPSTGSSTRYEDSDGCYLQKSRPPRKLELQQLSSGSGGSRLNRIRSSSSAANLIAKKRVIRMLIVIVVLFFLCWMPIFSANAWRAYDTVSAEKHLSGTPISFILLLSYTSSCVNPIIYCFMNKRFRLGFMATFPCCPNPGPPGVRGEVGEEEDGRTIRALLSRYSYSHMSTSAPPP

[3] = Antiproliferative activity against human MiaPaCa cells assessed as reduction in cell viability after 3 days by MTT assay; assay type: functional, cell-based; conditions: MIA PaCa-2, 72 h
[4] = system: AGS; assay: Antiproliferative activity against human AGS cells assessed as reduction in cell viability after 3 days by MTT assay; assay type: functional, cell-based; conditions: 72 h
[5] = Antiproliferative activity against human PANC cells assessed as reduction in cell viability after 3 days by MTT assay; assay type: functional, cell-based; conditions: 72 h
[6] = Antiproliferative activity against human U373MG cells assessed as reduction in cell viability after 3 days by MTT assay; assay type: functional, cell-based, U-373MG ATCC; conditions: U373 MG, 72 h
[7] = system: MAC13; assay: Antiproliferative activity against mouse MAC13 cells assessed as reduction in cell viability after 3 days by MTT assay; assay type: functional, cell-based; conditions: MAC13, 72 h
[8] = system: MAC16; assay: Antiproliferative activity against mouse MAC16 cells assessed as reduction in cell viability after 3 days by MTT assay; assay type: functional, cell-based; conditions: MAC16, 72 h
[9] = system: MAC16; assay: Antitumor activity against mouse MAC16 cells xenografted in po dosed NSG mouse measured thrice weekly after compound dosage; assay type: functional, organism-based
[10] = system: MiaPaCa; assay: Antitumor activity against human MiaPaCa cells xenografted in po dosed NSG mouse measured thrice weekly after compound dosage; assay type: functional, organism-based
[11] = Potency index, ratio of lorglumide IC50 to compound IC50 for human MiaPaCa cells; assay type: functional
[12] = system: MAC16; assay: Antimetastatic activity against mouse MAC16 cells xenografted in po dosed NSG mouse assessed as reduction of cell migration to lung measured thrice weekly after compound dosage; assay type: functional, organism-based
[13] = biological target: T2, Cholecystokinin receptor type A (Rattus norvegicus) (UniProt P30551); assay: Antagonist activity at CCK1 receptor in rat duodenum assessed as inhibition of electrically stimulated contraction
T2 sequence (whole entry): T1 sequence (P30551 whole entry)

[14] = biological target: T3, Cholecystokinin receptor type A (Cavia porcellus) (UniProt Q63931); assay: Insurmountable antagonist activity at CCK1 receptor in guinea pig bladder assessed as inhibition of CCK8s induced contraction preincubated 10 mins followed by CCK8s addition
T3 sequence (whole entry): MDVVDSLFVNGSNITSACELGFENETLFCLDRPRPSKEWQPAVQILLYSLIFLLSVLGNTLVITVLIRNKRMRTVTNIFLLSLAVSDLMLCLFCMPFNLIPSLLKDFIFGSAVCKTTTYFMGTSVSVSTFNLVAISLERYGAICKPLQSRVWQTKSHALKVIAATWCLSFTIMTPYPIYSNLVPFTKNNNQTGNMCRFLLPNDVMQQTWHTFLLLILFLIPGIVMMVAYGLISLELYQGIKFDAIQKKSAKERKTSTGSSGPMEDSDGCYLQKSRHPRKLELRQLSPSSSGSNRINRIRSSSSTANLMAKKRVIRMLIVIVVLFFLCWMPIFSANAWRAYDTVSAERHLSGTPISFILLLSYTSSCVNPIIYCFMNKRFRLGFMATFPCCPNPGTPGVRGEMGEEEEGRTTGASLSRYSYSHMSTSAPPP

[15] = Oral bioavailability in rat; assay type: ADME, organism-based; conditions: in vivo
[16] = Half life in rat; assay type: ADME, organism-based; conditions: in vivo
[17] = biological target: T4, Cholecystokinin receptor type A (Homo sapiens) (UniProt P32238); assay: […] activity at CCK1 receptor (unknown origin)
T4 sequence (whole entry): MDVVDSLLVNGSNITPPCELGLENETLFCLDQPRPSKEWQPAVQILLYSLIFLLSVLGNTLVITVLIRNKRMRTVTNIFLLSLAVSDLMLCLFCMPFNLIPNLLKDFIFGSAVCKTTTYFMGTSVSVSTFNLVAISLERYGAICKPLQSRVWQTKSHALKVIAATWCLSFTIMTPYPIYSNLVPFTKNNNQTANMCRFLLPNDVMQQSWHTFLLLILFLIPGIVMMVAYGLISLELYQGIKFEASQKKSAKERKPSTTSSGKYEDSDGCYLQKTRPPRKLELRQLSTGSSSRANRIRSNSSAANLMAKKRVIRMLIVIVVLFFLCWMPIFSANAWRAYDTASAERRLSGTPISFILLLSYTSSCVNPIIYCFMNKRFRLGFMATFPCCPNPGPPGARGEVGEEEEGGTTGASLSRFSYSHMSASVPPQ

Row | Compound | IC50 [1] | IC50 [2] | IC50 [3] | IC50 [4] | IC50 [5] | IC50 [6] | IC50 [7] | IC50 [8] | also measured
1 | CC(C)N1C(=O)C=C(Cl)C1(O)c1ccccc1 (stereo not drawn) | 0.9 µM | 0.2 µM | – | – | – | – | – | – | –
2 | CN1C(=O)C=C(Cl)C1(O)c1ccccc1 (stereo not drawn) | > 10 µM | 2.5 µM | – | – | – | – | – | – | –
3 | CCCCCCN1C(=O)C=C(Cl)C1(O)c1ccc(Cl)cc1 (stereo not drawn) | > 10 µM | 3.6 µM | – | – | – | – | – | – | –
4 | O=C1C=C(Cl)C(O)(c2ccc(Cl)cc2)N1C1CCCC1 (stereo not drawn) | 10 µM | – | – | – | – | – | – | – | –
5 | O=C1C=C(Cl)C(O)(c2ccccc2)N1C1CCCCC1 (stereo not drawn) | > 10 µM | > 10 µM | – | – | – | – | – | – | –
6 | CC(C)CN1C(=O)C=C(Cl)C1(O)c1ccccc1 (stereo not drawn) | 1.2 µM | 0.02 µM | 0.015 µM | 0.262 µM | 0.027 µM | 0.765 µM | 0.536 µM | 0.096 µM | TGI [9]: Active; TGI [10]: Active; Ratio IC50 [11]: 20; Activity [12]: Active
7 | Cc1cccc(NC(=O)N[C@@H]2N=C(c3ccccc3)c3ccccc3N(C)C2=O)c1 [L-365260] | – | – | > 5 µM | 0.675 µM | > 1 µM | 0.541 µM | > 5 µM | > 5 µM | –
8 | CC(C)(C)N1C(=O)C=C(Cl)C1(O)c1ccccc1 (stereo not drawn) | 0.9 µM | 0.12 µM | – | – | – | – | – | – | –
9 | CC(C)CN1C(=O)C=C(Cl)C1(O)c1ccc(Cl)cc1 (stereo not drawn) | 0.4 µM | 0.008 µM | 0.013 µM | 0.242 µM | 0.022 µM | 0.475 µM | 0.526 µM | 0.086 µM | inhibition [13]: Dose-dependent effect; inhibition [14]: Dose-dependent effect
10 | CN1C(=O)C=C(Cl)C1(O)c1ccc(Cl)cc1 (stereo not drawn) | > 10 µM | 2 µM | – | – | – | – | – | – | –
11 | O=C1C=C(Cl)C(O)(c2ccc(Cl)cc2)N1C1CC1 (stereo not drawn) | > 10 µM | 4 µM | – | – | – | – | – | – | –
12 | CC(C)N1C(=O)C=C(Cl)C1(O)c1ccc(Cl)cc1 (stereo not drawn) | 3.7 µM | 0.3 µM | – | – | – | – | – | – | –
13 | CCCCCCN1C(=O)C=C(Cl)C1(O)c1ccccc1 (stereo not drawn) | > 10 µM | 4.5 µM | – | – | – | – | – | – | –
14 | O=C1C=C(Cl)C(O)(c2ccccc2)N1C1CCCC1 (stereo not drawn) | 0.84 µM | – | – | – | – | – | – | – | –
15 | O=C1C=C(Cl)C(O)(c2ccccc2)N1c1ccccc1 (stereo not drawn) | > 10 µM | > 10 µM | – | – | – | – | – | – | –
16 | O=C1C=C(Cl)C(O)(c2ccccc2)N1Cc1ccccc1 (stereo not drawn) | 0.022 µM | 0.8 µM | 0.23 µM | 0.053 µM | 0.674 µM | 0.023 µM | > 1 µM | > 1 µM | –
17 | O=C1C=C(Cl)C(O)(c2ccccc2)N1C1CC1 (stereo not drawn) | > 10 µM | 7.5 µM | – | – | – | – | – | – | –
18 | CC(C)CN1C(=O)C=C(Cl)C1(O)c1ccc(F)cc1 (stereo not drawn) | 0.75 µM | 0.012 µM | 0.011 µM | 0.222 µM | 0.018 µM | 0.665 µM | 0.508 µM | 0.076 µM | bioavailability [15]: 98%; half-life [16]: 3.5 h; TGI [9]: Active; TGI [10]: Active; Activity [12]: Active
19 | CN1C(=O)C(NC(=O)c2cc3ccccc3[nH]2)N=C(c2ccccc2)c2ccccc21 (stereo not drawn) | – | – | 1.2 µM | > 5 µM | 0.48 µM | > 5 µM | 1.1 µM | 1 µM | Activity [17]: Active
20 | CCCCCN(CCCCC)C(=O)C(CCC(=O)O)NC(=O)c1ccc(Cl)c(Cl)c1 (stereo not drawn) [LORGLUMIDE SODIUM] | > 10 µM | 0.17 µM | 0.425 µM | 0.289 µM | 0.316 µM | > 5 µM | 0.421 µM | 0.861 µM | –
